In patent US10294207B2, “Pyrazole derivatives as TNIK, IKKϵ and TBK1 inhibitor and pharmaceutical composition comprising same” (GREEN CROSS CORPORATION, priority 2015, dated 2019):

How the values were obtained:
TBK1 = target: T1, TBK1 (Homo sapiens, UniProt Q9UHD2); experiment: TBK1 inhibition, ADP-Glo Kinase Assay; type: biochemical; conditions: luminometer
T1 construct: purchased Promega V3991
T1 sequence (Q9UHD2 1-729): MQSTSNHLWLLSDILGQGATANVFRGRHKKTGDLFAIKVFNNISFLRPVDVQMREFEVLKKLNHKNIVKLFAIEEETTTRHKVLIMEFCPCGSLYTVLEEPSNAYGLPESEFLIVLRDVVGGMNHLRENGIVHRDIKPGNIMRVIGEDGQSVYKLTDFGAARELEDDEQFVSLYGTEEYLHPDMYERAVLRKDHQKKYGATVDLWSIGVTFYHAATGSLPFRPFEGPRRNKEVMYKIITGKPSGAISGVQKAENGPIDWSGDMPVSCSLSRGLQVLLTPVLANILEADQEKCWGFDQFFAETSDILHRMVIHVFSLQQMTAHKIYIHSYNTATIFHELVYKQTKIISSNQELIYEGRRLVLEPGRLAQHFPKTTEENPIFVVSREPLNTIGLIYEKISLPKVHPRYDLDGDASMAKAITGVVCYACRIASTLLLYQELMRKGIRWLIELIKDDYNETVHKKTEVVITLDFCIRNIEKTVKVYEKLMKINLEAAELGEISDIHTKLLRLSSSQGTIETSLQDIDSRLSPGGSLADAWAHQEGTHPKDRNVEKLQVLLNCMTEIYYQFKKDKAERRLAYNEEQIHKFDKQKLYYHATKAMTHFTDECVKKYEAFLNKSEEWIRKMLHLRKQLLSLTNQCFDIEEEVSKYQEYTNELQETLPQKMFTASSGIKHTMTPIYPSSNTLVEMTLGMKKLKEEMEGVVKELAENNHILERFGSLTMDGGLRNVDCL
Summary of the method: (§1)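 ADP-Glo luminescence reported ADP produced by each kinase, following the kit protocol. Reactions used commercial kinase enzyme systems in buffer of 40 mM Tris (pH 7.5), 20 mM MgCl2 and 0.1 mg/mL BSA.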

IKKε = target: T2, IKKε (Homo sapiens, UniProt Q14164); experiment: IKKε inhibition, ADP-Glo Kinase Assay; type: biochemical; conditions: luminometer
T2 construct: purchased Invitrogen PR8031B
T2 sequence (Q14164 1-716): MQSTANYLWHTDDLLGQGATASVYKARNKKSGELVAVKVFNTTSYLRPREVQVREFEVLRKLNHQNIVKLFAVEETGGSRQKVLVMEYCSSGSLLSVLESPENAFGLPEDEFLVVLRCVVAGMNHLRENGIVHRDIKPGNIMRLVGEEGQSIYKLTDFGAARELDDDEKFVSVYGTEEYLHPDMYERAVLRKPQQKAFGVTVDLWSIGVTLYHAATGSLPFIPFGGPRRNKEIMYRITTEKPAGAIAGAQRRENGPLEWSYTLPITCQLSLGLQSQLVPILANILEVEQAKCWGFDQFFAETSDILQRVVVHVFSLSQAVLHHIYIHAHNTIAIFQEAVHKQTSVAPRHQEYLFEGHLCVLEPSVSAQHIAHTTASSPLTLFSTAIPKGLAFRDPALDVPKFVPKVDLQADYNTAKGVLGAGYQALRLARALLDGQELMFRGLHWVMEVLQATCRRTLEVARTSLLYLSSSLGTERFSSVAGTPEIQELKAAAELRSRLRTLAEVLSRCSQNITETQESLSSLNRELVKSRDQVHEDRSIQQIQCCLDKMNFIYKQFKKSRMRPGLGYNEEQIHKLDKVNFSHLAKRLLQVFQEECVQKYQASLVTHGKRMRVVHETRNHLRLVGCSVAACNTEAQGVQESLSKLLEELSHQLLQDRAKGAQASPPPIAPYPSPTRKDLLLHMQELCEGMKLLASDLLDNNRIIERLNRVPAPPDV
Summary of the method: as §1

Row | SMILES | IC50 (TBK1) [µM] | IC50 (IKKε) [µM]
1 | CCC(NC(=O)c1ccc2[nH]nc(NC(=O)c3ccc(N4C[C@@H](C)N[C@@H](C)C4)cc3)c2c1)c1cccs1 (stereo partly drawn) [Example 99, 3-(4-((3R,5S)-3,5-Dimethylpiperazin-1-yl)benzamido)-N-(1-(thiophen-2-yl)propyl)-1H-indazole-5-carboxamide 2,2,2-trifluoroacetate] | 0.0027 | 0.014
2 | Cc1noc(CNC(=O)c2ccc3[nH]nc(NC(=O)c4ccc(N5CCOCC5)cc4)c3c2)n1 [Example 100, N-((3-Methyl-1,2,4-oxadiazol-5-yl)methyl)-3-(4-morpholinobenzamido)-1H-indazole-5-carboxamide 2,2,2-trifluoroacetate] | 0.22 | 0.95
3 | Cc1noc(CNC(=O)c2ccc3[nH]nc(NC(=O)c4ccc(N5CCN(C)CC5)cc4)c3c2)n1 [Example 101, N-((3-Methyl-1,2,4-oxadiazol-5-yl)methyl)-3-(4-(4-methylpiperazin-1-yl)benzamido)-1H-indazole-5-carboxamide 2,2,2-trifluoroacetate] | 0.15 | 0.96
4 | CCC(NC(=O)c1ccc2[nH]nc(NC(=O)c3ccc(N4CCNCC4)cc3)c2c1)c1cccs1 (centres unmarked) [Example 102, 3-(4-(Piperazin-1-yl)benzamido)-N-(1-(thiophen-2-yl)propyl)-1H-indazole-5-carboxamide] | 0.0058 | 0.025
5 | CN1CCN(c2ccc(C(=O)Nc3n[nH]c4ccc(C(=O)NCc5nccs5)cc34)cc2)CC1 [Example 103, 3-(4-(4-Methylpiperazin-1-yl)benzamido)-N-(thiazol-2-ylmethyl)-1H-indazole-5-carboxamide 2,2,2-trifluoroacetate] | 0.02 | 0.44
6 | O=C(NCc1nccs1)c1ccc2[nH]nc(NC(=O)c3ccc(N4CCOCC4)cc3)c2c1 [Example 104, 3-(4-Morpholinobenzamido)-N-(thiazol-2-ylmethyl)-1H-indazole-5-carboxamide 2,2,2-trifluoroacetate] | 0.026 | 0.37
7 | O=C(NCc1ncon1)c1ccc2[nH]nc(NC(=O)c3ccc(N4CCOCC4)cc3)c2c1 [Example 105, N-((1,2,4-Oxadiazol-3-yl)methyl)-3-(4-morpholinobenzamido)-1H-indazole-5-carboxamide 2,2,2-trifluoroacetate] | 0.1 | 1.14
8 | CN1CCN(c2ccc(C(=O)Nc3n[nH]c4ccc(C(=O)NCC5CCC5)cc34)cc2)CC1 [Example 106, N-(Cyclobutylmethyl)-3-(4-(4-methylpiperazin-1-yl)benzamido)-1H-indazole-5-carboxamide] | 0.023 | 0.15
9 | CCC(NC(=O)c1ccc2[nH]nc(NC(=O)c3ccc(N4CCC(O)CC4)cc3)c2c1)c1cccs1 (centres unmarked) [Example 108, 3-(4-(4-Hydroxypiperidin-1-yl)benzamido)-N-(1-(thiophen-2-yl)propyl)-1H-indazole-5-carboxamide] | 0.0028 | 0.015
10 | CCC(NC(=O)c1ccc2[nH]nc(NC(=O)c3ccc(N4CCN(CC)CC4)cc3)c2c1)c1cccs1 (centres unmarked) [Example 109, 3-(4-(4-Ethylpiperazin-1-yl)benzamido)-N-(1-(thiophen-2-yl)propyl)-1H-indazole-5-carboxamide] | 0.0036 | 0.025
11 | CCC(NC(=O)c1ccc2[nH]nc(NC(=O)c3ccc(N4CCC(OC)CC4)cc3)c2c1)c1cccs1 (centres unmarked) [Example 110, 3-(4-(4-methoxypiperidin-1-yl)benzamido)-N-(1-(thiophen-2-yl)propyl)-1H-indazole-5-carboxamide] | 0.0072 | 0.036
12 | CC[C@H](NC(=O)c1ccc2[nH]nc(NC(=O)c3ccc(N4CCN(C)CC4)cc3)c2c1)c1cccs1 [Example 111, (S)-3-(4-(4-Methylpiperazin-1-yl)benzamido)-N-(1-(thiophen-2-yl)propyl)-1H-indazole-5-carboxamide] | 0.014 | 0.074
13 | CC[C@@H](NC(=O)c1ccc2[nH]nc(NC(=O)c3ccc(N4CCN(C)CC4)cc3)c2c1)c1cccs1 [Example 112, (R)-3-(4-(4-Methylpiperazin-1-yl)benzamido)-N-(1-(thiophen-2-yl)propyl)-1H-indazole-5-carboxamide] | 0.0042 | 0.011
14 | CCCCNC(=O)c1ccc2[nH]nc(NC(=O)c3ccc(N4CCN(C)CC4)cc3)c2c1 [Example 113, N-Butyl-3-(4-(4-methylpiperazin-1-yl)benzamido)-1H-indazole-5-carboxamide 2,2,2-trifluoroacetate] | 0.018 | 0.18
15 | CC(C)CCNC(=O)c1ccc2[nH]nc(NC(=O)c3ccc(N4CCN(C)CC4)cc3)c2c1 [Example 114, N-Isopentyl-3-(4-(4-methylpiperazin-1-yl)benzamido)-1H-indazole-5-carboxamide 2,2,2-trifluoroacetate] | 0.082 | 0.41
16 | CCCCNC(=O)c1ccc2[nH]nc(NC(=O)c3ccc(N4CCOCC4)cc3)c2c1 [Example 115, N-Butyl-3-(4-morpholinobenzamido)-1H-indazole-5-carboxamide 2,2,2-trifluoroacetate] | 0.071 | 0.97
17 | CC(C)CCNC(=O)c1ccc2[nH]nc(NC(=O)c3ccc(N4CCOCC4)cc3)c2c1 [Example 116, N-Isopentyl-3-(4-morpholinobenzamido)-1H-indazole-5-carboxamide 2,2,2-trifluoroacetate] | 0.48 | 3.12
18 | C[C@H]1CN(c2ccc(C(=O)Nc3n[nH]c4ccc(C(=O)NCc5cccs5)cc34)cc2)CCN1 [Example 117, (S)-3-(4-(3-Methylpiperazin-1-yl)benzamido)-N-(thiophen-2-ylmethyl)-1H-indazole-5-carboxamide 2,2,2-trifluoroacetate] | 0.0033 | 0.071
19 | CN1CCN(c2ccc(C(=O)Nc3n[nH]c4ccc(C(=O)NCc5ncon5)cc34)cc2)CC1 [Example 118] | 0.3 | 1.96
20 | O=C(NCc1c[nH]nn1)c1ccc2[nH]nc(NC(=O)c3ccc(N4CCOCC4)cc3)c2c1 [Example 119] | 0.46 | 1.24
21 | CN1CCN(c2ccc(C(=O)Nc3n[nH]c4ccc(C(=O)NCc5ccncc5)cc34)cc2)CC1 [Example 121, 3-(4-(4-Methylpiperazin-1-yl)benzamido)-N-(pyridin-4-ylmethyl)-1H-indazole-5-carboxamide] | 0.0063 | 0.11
22 | O=C(Nc1n[nH]c2ccc(C(=O)NC(c3cccs3)C3CC3)cc12)c1ccc(N2CCOCC2)cc1 (centres unmarked) [Example 122, N-(Cyclopropyl(thiophen-2-yl)methyl)-3-(4-morpholinobenzamido)-1H-indazole-5-carboxamide] | 0.0044 | 0.025
23 | O=C(Nc1n[nH]c2ccc(CNCc3cccs3)cc12)c1ccc(N2CCOCC2)cc1 [Example 123] | 0.66 | 4.47
24 | CCC(NCc1ccc2[nH]nc(NC(=O)c3ccc(N4CCN(C)CC4)cc3)c2c1)c1cccs1 (centres unmarked) [Example 124] | 2.44 | > 10
25 | CN1CCN(c2ccc(C(=O)Nc3n[nH]c4ccc(C(=O)NC(c5cccs5)C5CC5)cc34)cc2)CC1 (centres unmarked) [Example 125, N-(Cyclopropyl(thiophen-2-yl)methyl)-3-(4-(4-methylpiperazin-1-yl)benzamido)-1H-indazole-5-carboxamide] | 0.026 | 0.037
